Active and inactive are the calls of the source.
Columns and labels:
[1] = biological target: Nuclear receptor subfamily 5 group A member 2 (Homo sapiens, UniProt O00482); assay type: functional, cell-based;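 further: HEK293T cells transfected with LRH-1 and a StAR promoter luciferase reporter; potency for inhibitors that lower LRH-1 driven reporter light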
[2] = nonselective StAR promoter luciferase inhibitors – cell-based, luminescence, luciferase reporter, counter-screen for LRH-1 inverse agonist project, dose response (AID 651969); assay type: functional
Steroidogenic factor 1 = Steroidogenic factor 1 (Homo sapiens, UniProt Q13285); assay: Counterscreen for inverse agonists of the liver receptor homolog-1 (LRH-1; NR5A2): Luminescence-based cell-based high throughput dose response assay to identify inverse agonists of the Steroidogenic Factor 1 Nuclear Receptor (SF1; NR5A1).; assay type: functional
[3] = biological target: T1, Corticotropin-releasing factor receptor 2/Corticotropin-releasing factor-binding protein (Homo sapiens, UniProt P24387+Q13324); assay: Dose Response confirmation of uHTS hits for small molecule antagonists of the CRF-binding protein and CRF-R2 receptor complex.; assay type: functional; details: read-out: IC50_Mean
T1 sequence (Q13324 whole entry): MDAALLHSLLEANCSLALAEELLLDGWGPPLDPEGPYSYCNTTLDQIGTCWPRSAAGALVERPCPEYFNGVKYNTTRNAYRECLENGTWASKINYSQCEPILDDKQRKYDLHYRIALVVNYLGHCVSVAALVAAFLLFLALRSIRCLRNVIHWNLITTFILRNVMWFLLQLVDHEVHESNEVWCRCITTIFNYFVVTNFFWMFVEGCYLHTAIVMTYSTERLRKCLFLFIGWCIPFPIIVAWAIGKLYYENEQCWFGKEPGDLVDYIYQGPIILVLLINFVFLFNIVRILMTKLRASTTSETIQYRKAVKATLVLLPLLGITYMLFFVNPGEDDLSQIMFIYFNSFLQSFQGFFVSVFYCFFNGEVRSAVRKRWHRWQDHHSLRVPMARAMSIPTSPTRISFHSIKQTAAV
T1 sequence (P24387 whole entry): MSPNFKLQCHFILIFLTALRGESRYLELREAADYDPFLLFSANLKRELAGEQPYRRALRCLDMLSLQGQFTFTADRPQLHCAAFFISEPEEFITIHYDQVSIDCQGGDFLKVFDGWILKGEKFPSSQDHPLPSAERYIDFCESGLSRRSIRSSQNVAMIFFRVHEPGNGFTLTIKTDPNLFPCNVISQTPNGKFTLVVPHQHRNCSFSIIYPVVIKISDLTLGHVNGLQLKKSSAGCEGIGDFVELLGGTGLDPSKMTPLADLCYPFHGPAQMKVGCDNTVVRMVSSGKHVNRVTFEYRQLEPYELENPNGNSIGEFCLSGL

Leucine aminopeptidase = biological target: T2, Leucine aminopeptidase (Plasmodium falciparum 3D7, UniProt Q8IL11); assay: P. falciparum M17LAP inhibitors, primary screen, biochemical, fluorogenic H-Leu-NHMec substrate, 1536-well (AID 1619); assay type: functional
T2 sequence (Q8IL11 whole entry): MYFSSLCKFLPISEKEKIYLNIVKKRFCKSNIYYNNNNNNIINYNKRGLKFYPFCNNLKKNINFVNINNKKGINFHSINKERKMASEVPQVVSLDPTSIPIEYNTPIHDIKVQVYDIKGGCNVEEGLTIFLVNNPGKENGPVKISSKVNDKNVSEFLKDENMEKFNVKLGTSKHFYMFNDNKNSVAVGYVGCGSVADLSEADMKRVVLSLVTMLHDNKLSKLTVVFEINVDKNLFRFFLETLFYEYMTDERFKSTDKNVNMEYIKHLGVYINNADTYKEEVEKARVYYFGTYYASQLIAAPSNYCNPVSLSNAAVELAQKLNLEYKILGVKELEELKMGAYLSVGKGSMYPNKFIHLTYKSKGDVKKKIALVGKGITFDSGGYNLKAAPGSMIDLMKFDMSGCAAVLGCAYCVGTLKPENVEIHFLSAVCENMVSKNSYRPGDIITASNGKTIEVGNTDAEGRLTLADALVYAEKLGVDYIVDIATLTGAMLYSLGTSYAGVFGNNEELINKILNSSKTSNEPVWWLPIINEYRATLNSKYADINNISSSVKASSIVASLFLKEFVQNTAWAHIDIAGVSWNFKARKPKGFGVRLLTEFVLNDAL

[4] = blockers of CRF-binding protein–CRF-R2 complex – cell-based, uHTS hits, 384-well, dose response (AID 651639); assay type: functional, Homo sapiens; details: read-out: IC50_Mean
Aminopeptidase N = biological target: T3, Aminopeptidase N (Plasmodium falciparum FcB1/Columbia, UniProt O96935); assay: malaria alanyl aminopeptidase activity blockers – biochemical, fluorogenic H-Leu-NHMec substrate, 1536-well (AID 1445); parameters: species or system Plasmodium falciparum 3D7, 3D7
T3 sequence (O96935 whole entry): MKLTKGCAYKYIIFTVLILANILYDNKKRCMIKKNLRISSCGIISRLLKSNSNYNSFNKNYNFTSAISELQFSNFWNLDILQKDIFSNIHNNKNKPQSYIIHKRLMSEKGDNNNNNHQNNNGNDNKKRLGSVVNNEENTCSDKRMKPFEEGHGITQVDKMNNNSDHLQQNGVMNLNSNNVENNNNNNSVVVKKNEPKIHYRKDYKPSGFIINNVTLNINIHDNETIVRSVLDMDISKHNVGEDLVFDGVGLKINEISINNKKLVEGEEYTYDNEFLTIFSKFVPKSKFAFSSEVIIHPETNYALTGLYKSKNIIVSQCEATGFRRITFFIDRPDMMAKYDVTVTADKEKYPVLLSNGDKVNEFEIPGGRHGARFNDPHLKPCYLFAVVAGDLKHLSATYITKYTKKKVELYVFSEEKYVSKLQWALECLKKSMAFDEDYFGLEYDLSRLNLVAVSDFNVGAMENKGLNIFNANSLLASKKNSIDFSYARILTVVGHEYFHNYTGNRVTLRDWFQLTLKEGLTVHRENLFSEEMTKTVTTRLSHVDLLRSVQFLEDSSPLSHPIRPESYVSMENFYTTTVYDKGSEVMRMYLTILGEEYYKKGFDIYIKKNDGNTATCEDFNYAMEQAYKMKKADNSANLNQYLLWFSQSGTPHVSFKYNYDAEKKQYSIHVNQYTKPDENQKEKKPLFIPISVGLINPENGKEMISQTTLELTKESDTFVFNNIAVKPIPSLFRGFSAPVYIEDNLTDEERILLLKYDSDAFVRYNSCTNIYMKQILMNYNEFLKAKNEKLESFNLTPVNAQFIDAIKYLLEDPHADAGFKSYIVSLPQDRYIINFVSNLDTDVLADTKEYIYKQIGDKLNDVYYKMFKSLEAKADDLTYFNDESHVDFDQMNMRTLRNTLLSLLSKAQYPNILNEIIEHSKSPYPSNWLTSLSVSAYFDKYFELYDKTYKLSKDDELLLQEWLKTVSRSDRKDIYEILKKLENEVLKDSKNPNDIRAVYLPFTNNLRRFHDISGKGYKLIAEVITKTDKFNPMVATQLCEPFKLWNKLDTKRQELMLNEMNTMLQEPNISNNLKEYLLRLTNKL

[5] = biological target: T1, Corticotropin-releasing factor receptor 2/Corticotropin-releasing factor-binding protein; assay: activators of CRF receptor 2 with binding protein – uHTS hits, confirmation (AID 602473); assay type: functional; details: read-out: EC50_Mean
[6] = biological target: T4, Replicative DNA helicase DnaB (Mycobacterium tuberculosis, UniProt P9WMR3); assay: DnaB intein splicing inhibitors, dose response, biochemical, cell-free fluorescence (AID 449749); assay type: functional
T4 sequence (P9WMR3 whole entry): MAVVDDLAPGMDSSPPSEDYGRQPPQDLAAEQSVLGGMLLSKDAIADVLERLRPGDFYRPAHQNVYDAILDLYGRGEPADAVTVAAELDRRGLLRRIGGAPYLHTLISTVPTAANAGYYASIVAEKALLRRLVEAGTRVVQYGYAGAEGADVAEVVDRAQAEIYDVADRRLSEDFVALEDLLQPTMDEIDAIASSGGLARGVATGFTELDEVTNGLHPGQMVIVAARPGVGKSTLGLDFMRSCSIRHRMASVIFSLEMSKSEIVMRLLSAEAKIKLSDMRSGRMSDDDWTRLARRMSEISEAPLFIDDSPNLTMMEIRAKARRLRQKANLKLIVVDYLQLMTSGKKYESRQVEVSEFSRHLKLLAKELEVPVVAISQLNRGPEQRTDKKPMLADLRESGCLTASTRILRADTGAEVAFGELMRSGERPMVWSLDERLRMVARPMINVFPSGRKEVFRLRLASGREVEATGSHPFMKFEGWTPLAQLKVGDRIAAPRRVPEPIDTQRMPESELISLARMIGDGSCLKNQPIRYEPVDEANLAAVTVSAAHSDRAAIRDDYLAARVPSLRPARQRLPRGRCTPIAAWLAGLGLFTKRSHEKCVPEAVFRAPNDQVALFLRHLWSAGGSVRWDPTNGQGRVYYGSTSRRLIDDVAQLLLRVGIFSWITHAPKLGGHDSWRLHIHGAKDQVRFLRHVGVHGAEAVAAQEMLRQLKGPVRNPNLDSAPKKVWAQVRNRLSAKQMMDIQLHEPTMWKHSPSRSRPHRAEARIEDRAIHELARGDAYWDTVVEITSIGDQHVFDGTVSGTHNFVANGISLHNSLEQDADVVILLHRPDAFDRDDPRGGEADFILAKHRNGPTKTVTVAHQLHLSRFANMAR

[7] = biological target: T5, Hepatocyte nuclear factor 4-alpha (Homo sapiens, UniProt P41235); assay type: functional, cell-based;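 further: biochemical luminescence-based dose-response counterscreen measuring inhibition of HNF4 dimerization, run alongside a screen for blockers of ABHD5–perilipin-5 interaction; split luciferase complementation of HNF4 fusion proteins in cell lysate measuring dimerization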
T5 sequence (P41235 whole entry): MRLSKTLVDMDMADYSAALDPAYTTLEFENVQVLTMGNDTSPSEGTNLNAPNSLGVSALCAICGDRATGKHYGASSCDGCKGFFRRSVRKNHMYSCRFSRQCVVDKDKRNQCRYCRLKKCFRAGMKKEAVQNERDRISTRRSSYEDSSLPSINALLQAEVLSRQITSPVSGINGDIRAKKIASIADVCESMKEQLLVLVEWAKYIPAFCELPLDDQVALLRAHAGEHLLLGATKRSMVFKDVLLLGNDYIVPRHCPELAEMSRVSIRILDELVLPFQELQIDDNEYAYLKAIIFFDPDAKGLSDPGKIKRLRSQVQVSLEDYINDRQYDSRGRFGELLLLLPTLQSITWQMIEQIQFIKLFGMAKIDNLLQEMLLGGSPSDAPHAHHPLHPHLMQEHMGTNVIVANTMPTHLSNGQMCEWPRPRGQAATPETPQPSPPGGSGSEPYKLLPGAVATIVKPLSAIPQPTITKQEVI

Protein RecA = biological target: T6, Protein RecA (Mycobacterium tuberculosis, UniProt P9WHJ3); assay: Fluorescence Cell-Free Homogeneous Dose Retest to Identify Inhibitors of RecA-Intein Splicing Activity. [Related pubchem assays (depositor defined):AID2097, AID2223, AID489010, AID492950]; assay type: functional
T6 sequence (P9WHJ3 whole entry): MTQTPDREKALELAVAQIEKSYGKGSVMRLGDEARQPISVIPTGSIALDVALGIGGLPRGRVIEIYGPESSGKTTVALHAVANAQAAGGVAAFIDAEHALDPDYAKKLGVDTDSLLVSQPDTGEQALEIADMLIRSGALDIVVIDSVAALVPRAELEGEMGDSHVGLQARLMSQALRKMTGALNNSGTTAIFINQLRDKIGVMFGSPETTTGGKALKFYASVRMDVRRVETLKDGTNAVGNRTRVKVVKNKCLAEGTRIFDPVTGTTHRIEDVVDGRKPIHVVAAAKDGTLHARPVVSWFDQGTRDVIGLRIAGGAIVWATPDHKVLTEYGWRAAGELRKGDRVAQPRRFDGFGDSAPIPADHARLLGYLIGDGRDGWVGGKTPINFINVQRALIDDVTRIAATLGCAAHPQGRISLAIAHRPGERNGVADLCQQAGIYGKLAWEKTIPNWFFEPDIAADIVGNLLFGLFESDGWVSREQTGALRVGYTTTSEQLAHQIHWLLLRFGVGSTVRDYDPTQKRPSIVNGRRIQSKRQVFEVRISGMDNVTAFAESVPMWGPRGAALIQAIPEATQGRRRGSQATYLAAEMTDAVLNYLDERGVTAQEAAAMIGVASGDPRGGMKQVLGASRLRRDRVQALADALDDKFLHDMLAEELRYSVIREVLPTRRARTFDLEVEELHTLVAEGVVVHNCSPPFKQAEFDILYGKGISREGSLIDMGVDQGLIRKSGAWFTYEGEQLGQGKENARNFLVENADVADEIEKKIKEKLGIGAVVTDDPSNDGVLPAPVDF

[8] = Luminescence Cell-Based Dose Retest to Confirm Inhibitors of Cancer Stem Cells. [Related pubchem assays (depositor defined):AID2717, AID2721]; assay type: functional; details: Homo sapiens
[9] = biological target: T7, Calpain-2 catalytic subunit (Sus scrofa, UniProt P43367); assay: m-calpain protease blockers, concentration series – biochemical, fluorogenic peptide substrate, dose response (AID 1420); assay type: functional
T7 sequence (P43367 whole entry): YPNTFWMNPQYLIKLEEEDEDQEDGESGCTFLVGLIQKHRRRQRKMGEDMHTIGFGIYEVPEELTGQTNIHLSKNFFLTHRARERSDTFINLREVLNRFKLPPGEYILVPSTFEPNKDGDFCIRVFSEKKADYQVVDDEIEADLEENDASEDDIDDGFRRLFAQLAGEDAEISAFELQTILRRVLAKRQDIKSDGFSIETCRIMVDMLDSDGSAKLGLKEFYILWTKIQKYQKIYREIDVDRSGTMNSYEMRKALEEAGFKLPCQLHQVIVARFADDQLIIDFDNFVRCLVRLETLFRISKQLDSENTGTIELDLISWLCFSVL

Chain of Nuclear receptor subfamily 5 group A member 2 (O00482 whole entry): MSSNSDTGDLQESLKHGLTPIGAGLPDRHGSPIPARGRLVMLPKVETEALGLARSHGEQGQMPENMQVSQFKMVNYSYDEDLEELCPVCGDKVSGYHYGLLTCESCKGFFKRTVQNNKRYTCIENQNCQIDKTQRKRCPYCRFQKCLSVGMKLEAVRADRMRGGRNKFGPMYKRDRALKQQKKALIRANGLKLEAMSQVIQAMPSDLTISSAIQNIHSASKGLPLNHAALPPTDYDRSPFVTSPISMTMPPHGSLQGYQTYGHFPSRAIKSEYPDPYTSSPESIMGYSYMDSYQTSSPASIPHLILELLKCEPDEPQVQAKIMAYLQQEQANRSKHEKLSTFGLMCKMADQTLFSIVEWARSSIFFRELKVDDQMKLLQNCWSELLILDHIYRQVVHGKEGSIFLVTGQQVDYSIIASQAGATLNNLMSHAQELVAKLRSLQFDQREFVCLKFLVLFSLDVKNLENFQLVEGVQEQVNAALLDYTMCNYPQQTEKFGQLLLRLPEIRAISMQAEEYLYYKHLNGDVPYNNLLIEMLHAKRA
Chain of Steroidogenic factor 1 (Q13285 whole entry): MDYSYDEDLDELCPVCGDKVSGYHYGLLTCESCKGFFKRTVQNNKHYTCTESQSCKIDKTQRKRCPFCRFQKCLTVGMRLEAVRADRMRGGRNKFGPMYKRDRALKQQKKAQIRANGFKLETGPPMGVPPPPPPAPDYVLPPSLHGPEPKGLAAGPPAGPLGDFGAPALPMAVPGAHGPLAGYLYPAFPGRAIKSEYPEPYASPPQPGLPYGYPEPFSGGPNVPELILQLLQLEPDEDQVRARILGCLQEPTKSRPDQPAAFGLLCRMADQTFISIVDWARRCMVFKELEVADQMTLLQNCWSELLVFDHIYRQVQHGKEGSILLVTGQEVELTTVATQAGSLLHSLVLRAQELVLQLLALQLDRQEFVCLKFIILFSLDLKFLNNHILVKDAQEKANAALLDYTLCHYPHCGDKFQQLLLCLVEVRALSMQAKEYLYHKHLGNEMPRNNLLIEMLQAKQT

Compound | IC50 [1] | IC50 [2] | IC50 (Steroidogenic factor 1) | IC50 [3] | IC50 [4] | EC50 [5] | further results
Cc1ccccc1C(=O)NC1CCN(CC(=O)Nc2ccc(Br)cc2)CC1 | 35.9 µM (inactive) | 35.9 µM (inactive) | 3.32 µM (active) | – | – | – | –
COc1ccc(/C=C2\SC(NS(=O)(=O)c3cccs3)=NC2=O)cc1 | – | – | – | 36.5 µM (active) | > 20 µM (inactive) | > 53 µM (inactive) | IC50 (Leucine aminopeptidase): 31 µM (active); IC50 (Aminopeptidase N): 41.1 µM (active)
Cc1cc(C)c(C(CC(=O)c2cccs2)C(C#N)C#N)c(C)c1 (centres undefined) | – | – | – | – | – | – | AC50 [6]: 3.42 µM (active); IC50 [7]: 8.02 µM (active); EC50 (Protein RecA): 2.31 µM (active); AC50 [8]: 5.08 µM (active)
CS(=O)(=O)c1ccc(-c2cc(NC=O)c3ncc(-c4ccc(F)cc4)n3c2)cc1 | 4.22 µM (active) | 12.4 µM (inactive) | 2.73 µM (active) | – | – | – | –
O=C(c1ccco1)N(Cc1cccc([N+](=O)[O-])c1)c1ccc(Br)cc1 | – | – | – | < 0.368 µM (active) | > 20 µM (inactive) | > 53 µM (inactive) | IC50 [9]: 12 µM (not active)
